Data from patent US20150297761A1, “PEPTIDIC STRUCTURES INCORPORATING AN AMINO ACID METAL COMPLEX AND APPLICATIONS IN MAGNETIC RESONANCE IMAGING” (THE GENERAL HOSPITAL CORPORATION, priority 2012, published 2015).

Legend:
Assay type in all cases: physicochemical
[1] = Relaxivity of Gd(DOTAla) metallopeptides and reference agents (T1 inversion recovery, 37° C.); settings: for Relaxivity per Gd, 400 MHz: 400 MHz (9.4 T); for r1 [0.47 T], per molecule / r1 [1.4 T], per molecule: per molecule (in parentheses)
Experimental: Main numbers are given per Gd, numbers in parentheses are per molecule values. All numbers were determined at 37° C. using an inversion recovery sequence at concentrations ranging from 0.05 to 0.6 mM/Gd. Table 4 in Example 2 further expands the data of Table 1.
Per Gd relaxivities were determined by measuring T1 at 37° C. using 20, 60, 200, 400 and 500 MHz spectrometers. Relaxivities for MS-325 (with and without the presence of HSA) as a reference compound with a long τR and [Gd(HP-DO3A)(H2O)] as a reference for very short τR were also measured, and all the relaxivity data is tabulated in Table 4, together with results obtained from literature for the compounds with similar estimated τR. […] Additional rigidity through cyclization seems to provide only minor relaxivity increase for the dimeric and trimeric systems (Gd2C2 and Gd3C3).
(§1) Measurement of relaxivity. Longitudinal relaxation times T1, were measured on Bruker Minispecs mq20 (0.47 T) and mq60 (1.41 T), a Bruker Bioscan horizontal bore 4.7 T, 9.4 T and 11.7 T Varian NMR spectrometers. T1 was measured by using an inversion recovery method with 10 inversion time values ranging from 0.05×T1 to 5×T1. Relaxivity was calculated from a linear plot of 3 or 4 different concentrations (ranging from 0.01 to 0.5 mM, depending on amount of compound isolated) versus the corresponding inverse relaxation times. All samples were measured at 37° C. using either the internal temperature control of the instrument (0.47, 1.41, 9.4 and 11.7 T) or a warm air blower (4.7 T). MS-325/HSA was prepared in a 4.5% w/v solution of HSA (0.66 mM) in PBS. The MS-325 concentration (in presence of HSA) ranged from 0.05 to 0.15 mM.

[2] = Relaxivity before and after disulfide bond reduction with TCEP; settings: for Relaxivity per Gd, TCEP reduced: after TCEP reduction of the disulfide bond; for Relaxivity per Gd, TCEP reduced / Relaxivity per Gd, cyclic / relaxivity r1, cyclic versus linearized (reduced) multimer: 37° C.; for Relaxivity per Gd, cyclic: first value column, before reduction; for relaxivity r1, cyclic versus linearized (reduced) multimer: 1.4 T; for relaxivity after disulfide bond reduction: 20 eq. TCEP 30 minutes, T1 at 37° C., field not stated in the sentence (0.47 and 1.41 T examined)
Experimental: Investigation of the effect of tertiary structure on relaxivity, was done by examination of the effect of disulfide bond reduction on T1 at 0.47 and 1.41 T. T1 was measured for each sample at 37° C. and then the samples were incubated with 20 eq. TCEP for 30 minutes at room temperature to reduce the intramolecular disulfide bond and give the linear peptide. Subsequently, the T1 values were remeasured and concentrations re-determined in order to calculate relaxivities. […] Over all, reduction of the disulfide bond has only a slight effect on relaxivity (FIGS. 16-18 and Table 5).
Reduction of disulfide bond for relaxivity measurements. Complex solutions of purified, cyclic Gd complexes (concentrations of 0.1-0.025 mM, 110 μL) in HEPES buffer (50 mM, pH 7.4) were mixed with TCEP solution (20 mM in HEPES, 10 μL) and incubated room temperature. Reduction was checked by LCMS analysis and found to be complete after 30 minutes.
as §1

[3] = Relaxivity of DOTAlaP derivatives (Example 6)
Experimental: Relaxivity. Longitudinal relaxation times T1, were measured on Bruker Minispecs mq20 (20 MHz) and mq60 (60 MHz) using an inversion recovery method with 10 inversion time values ranging from 0.05×T1 to 5×Ti. Relaxivity was calculated from a linear plot of 3 different concentrations ranging from 0.25 to 1.0 mM versus the corresponding inverse relaxation times. The temperature was adjusted to 37° C.

[4] = 17O NMR of Gd complexes for determination of τM (Example 6); settings: pH 7.4, 10 mM PBS; for ^310 TM (ns) / ^310kex × 10^6 (s^−1): 310 K
Experimental: ^17O NMR of Gd complexes for Determination of TM. ^17O NMR measurements of solutions were performed at 11.7 T on 350 μL samples contained in 5 mm standard NMR tubes on a Varian spectrometer. Temperature was regulated by air flow controlled by a Varian VT unit. ^17O transverse relaxation times of a >4 mM solution of Gd(3) and Gd(5a) (pH 7.4, 10 mM PBS buffer) were measured using a CPMG sequence. The concentration of the sample was determined by ICP-MS. Reduced relaxation rates, 1/T2r were calculated from the difference of 1/T2 between the sample and the water blank, and then divided by the mole fraction of coordinated water. The temperature dependence of 1/T2r was fit to a 4-parameter model as previously described. The Gd—O hyperfine-coupling constant, A/h, was assumed to be 3.8×10^6 rad/s, the Gd—O distance was assumed to be 3.1 Å.

[5] = Ligand challenge, equilibrium constant Kcomp of [Gd(DTPA)(H2O)]2− vs. L; settings: calculated from literature thermodynamic data
Experimental: As a means of assessing thermodynamic stability relative to other Gd(III)-complexes, [Gd(CyPic3A)(H2O)2]^− was challenged with DTPA in pH 7.4 25 mM Tris buffer. […] From this information it was possible to deduce equilibrium constants (Kcomp) for the competition reaction described in Equation 5,^31 where L=DTPA and L′=challenging chelator.
Equilibration of each solution was monitored by LC-MS. Relative distributions of [Gd(CyPic3A)(H2O)2]^− and CyPic3A were determined by integrating the corresponding absorbance traces at 280 nm. […] Kcomp values determined between [Gd(DTPA)(H2O)]^2− and various ligands were determined from conditional formation constants (Kcond)^4 values taken from the literature.^6-16 Direct comparisons were only made between Kcond values determined under identical conditions.

H2N—C(S^cycl)PG-DOTAla(Gd)-G-DOTAla(Gd)-G-DOTAla(Gd)-GC(S^cycl)CONH2 [Gd3C3]
Relaxivity per Gd, 20 MHz [1]: 12.7 mM⁻¹ s⁻¹
Relaxivity per Gd, 60 MHz [1]: 12.3 mM⁻¹ s⁻¹
Relaxivity per Gd, 200 MHz [1]: 9.2 mM⁻¹ s⁻¹
Relaxivity per Gd, 400 MHz [1]: 6.6 mM⁻¹ s⁻¹
Relaxivity per Gd, 500 MHz [1]: 5.5 mM⁻¹ s⁻¹
r1 [0.47 T], per Gd [1]: 13.38 mM⁻¹ s⁻¹
r1 [1.4 T], per Gd [1]: 12.86 mM⁻¹ s⁻¹
r1 [0.47 T], per molecule [1]: 40.14 mM⁻¹ s⁻¹
r1 [1.4 T], per molecule [1]: 38.58 mM⁻¹ s⁻¹
Relaxivity per Gd, TCEP reduced [2]: 11.5 mM⁻¹ s⁻¹
Relaxivity per Gd, cyclic [2]: 12.3 mM⁻¹ s⁻¹

2,2′-(4-(2-carboxy-2-(2-(4-isobutylphenyl)propanamido)ethyl)-10-(phosphonomethyl)-1,4,7,10-tetraazacyclododecane-1,7-diyl)diacetic acid [Gd(5a)]
r1 (20 MHz, 37° C., mM^−1s^−1) [3]: 5.4 mM⁻¹ s⁻¹
r1 (60 MHz, 37° C., mM^−1s^−1) [3]: 4.1 mM⁻¹ s⁻¹
^310 TM (ns) [4]: 6.36 ± 0.09 ns
^310kex × 10^6 (s^−1) [4]: 158 ± 3 × 10^6 s^−1
ΔH^‡ [4]: 5.492 ± 0.421 kcal/mol

H2N—C(SH)PG-DOTAla(Gd)-G-DOTAla(Gd)-GC(SH)CONH2 [Gd2C2-red]
relaxivity r1, cyclic versus linearized (reduced) multimer [2]: 9 mM⁻¹ s⁻¹
relaxivity after disulfide bond reduction [2]: 9 mM⁻¹ s⁻¹

CC1(N(CC(=O)O)CC(=O)O)CN(CC(=O)O)CCN(CC(=O)O)C1 [AAZTA]
Kcomp [Gd(DTPA)(H2O)]^2- vs. L pH 4 [5]: 0.091^9
Kcomp, [Gd(DTPA)(H2O)]^2- vs. L pH 7.4 [5]: .001^9

O=C(O)CN1CCN(CC(=O)O)Cc2cccc(n2)CN(CC(=O)O)CC1 [PCTA]
Kcomp [Gd(DTPA)(H2O)]^2- vs. L pH 4 [5]: 0.064^10
Kcomp, [Gd(DTPA)(H2O)]^2- vs. L pH 7.4 [5]: 0.019^10

CC(C)Cc1ccc(C(C)C(=O)NCCNC(=O)C(N)CN2CCN(CC(=O)O)CCN(CP(=O)(O)O)CCN(CC(=O)O)CC2)cc1 (centres unmarked) [Gd(5b), 2, 2′-(4-(2-amino-3-((2-(2-(4-isobutylphenyl)propanamido)ethyl)amino)-3-oxopropyl)-10-(phosphonomethyl)-1,4,7,10-tetraazacyclododecane-1,7-diyl)diacetic acid]
r1 (20 MHz, 37° C., mM^−1s^−1) [3]: 3.2 mM⁻¹ s⁻¹
r1 (60 MHz, 37° C., mM^−1s^−1) [3]: 3.0 mM⁻¹ s⁻¹

H2N—C(SH)PG-DOTAla(Gd)-G-DOTAla(Gd)-G-DOTAla(Gd)-GC(SH)CONH2 [Gd3C3-red]
relaxivity after disulfide bond reduction [2]: 11.5 mM⁻¹ s⁻¹

H2N—C(S^cycl)PG-DOTAla(Gd)-G-DOTAla(Gd)-GC(S^cycl)CON H2 [Gd2C2]
Relaxivity per Gd, 20 MHz [1]: 11.4 mM⁻¹ s⁻¹
Relaxivity per Gd, 60 MHz [1]: 10.6 mM⁻¹ s⁻¹
Relaxivity per Gd, 200 MHz [1]: 7.5 mM⁻¹ s⁻¹
Relaxivity per Gd, 400 MHz [1]: 5.7 mM⁻¹ s⁻¹
Relaxivity per Gd, 500 MHz [1]: 4.5 mM⁻¹ s⁻¹
r1 [0.47 T], per Gd [1]: 13.1 mM⁻¹ s⁻¹
r1 [1.4 T], per Gd [1]: 12.2 mM⁻¹ s⁻¹
r1 [0.47 T], per molecule [1]: 26.2 mM⁻¹ s⁻¹
r1 [1.4 T], per molecule [1]: 24.4 mM⁻¹ s⁻¹
relaxivity r1, cyclic versus linearized (reduced) multimer [2]: 10.5 mM⁻¹ s⁻¹
Relaxivity per Gd, TCEP reduced [2]: 9 mM⁻¹ s⁻¹
Relaxivity per Gd, cyclic [2]: 10.5 mM⁻¹ s⁻¹

NC(CN1CCN(CC(=O)O)CCN(CP(=O)(O)O)CCN(CC(=O)O)CC1)C(=O)O (centres unmarked) [Gd(3), 2,2′-(4-(2-amino-2-carboxyethyl)-10-(phosphonomethyl)-1,4,7,10-tetra-azacyclododecane-1,7-diyl)diacetic acid]
r1 (20 MHz, 37° C., mM^−1s^−1) [3]: 6.4 mM⁻¹ s⁻¹
r1 (60 MHz, 37° C., mM^−1s^−1) [3]: 6.1 mM⁻¹ s⁻¹
^310 TM (ns) [4]: 8.1 ± 0.25 ns
^310kex × 10^6 (s^−1) [4]: 125 ± 4 × 10^6 s^−1
ΔH^‡ [4]: 3.23 ± 0.268 kcal/mol

2,2′-(4-(2-carboxy-2-((1-(4-isobutylphenyl)ethyl)amino)ethyl)-10-(phosphonomethyl)-1,4,7,10-tetraazacyclododecane-1,7-diyl)diacetic acid [Gd(4b)]
r1 (20 MHz, 37° C., mM^−1s^−1) [3]: 4 mM⁻¹ s⁻¹
r1 (60 MHz, 37° C., mM^−1s^−1) [3]: 3.8 mM⁻¹ s⁻¹

H2N—C(S^cycl)PG-DOTAla(Gd)-GC(S^cycl)CONH2 [GdC1]
Relaxivity per Gd, 20 MHz [1]: 8.3 mM⁻¹ s⁻¹
Relaxivity per Gd, 60 MHz [1]: 7.1 mM⁻¹ s⁻¹
Relaxivity per Gd, 200 MHz [1]: 7.3 mM⁻¹ s⁻¹
Relaxivity per Gd, 400 MHz [1]: 5.1 mM⁻¹ s⁻¹
Relaxivity per Gd, 500 MHz [1]: 4.5 mM⁻¹ s⁻¹
r1 [0.47 T], per Gd [1]: 8.3 mM⁻¹ s⁻¹
r1 [1.4 T], per Gd [1]: 6.7 mM⁻¹ s⁻¹
Relaxivity per Gd, TCEP reduced [2]: 6.4 mM⁻¹ s⁻¹
Relaxivity per Gd, cyclic [2]: 7.1 mM⁻¹ s⁻¹
